Reference: patent US8912336B2, “Aryl and heteroaryl sulfones as mGluR4 allosteric potentiators, compositions, and methods of treating neurological dysfunction” (Vanderbilt University, priority 2009, dated 2014)

Target: T1, human mGluR4 (Homo sapiens, UniProt Q14833)
T1 construct: expressed in transfected cells; host or cells: Chinese Hamster Ovary (CHO) cells
Test: Potentiation of human mGluR4 in transfected CHO cells, Ca2+-sensitive fluorescent dye, EC20 agonist
Format: cell-based
Conditions: values in E-notation, unit inferred, read-out: hEC50
Experimental: The disclosed compounds and compositions can be evaluated for their ability to act as a potentiator of metabotropic glutamate receptor activity, in particular mGluR4 activity, by any suitable known methodology known in the art. For example, Chinese Hamster Ovary (CHO) cells transfected with human mGluR4 or HEK cells co-transfected with rat mGluR4 and the G-protein regulated Inwardly Rectifying Potassium channel (GIRK) were plated in clear bottom assay plates for assay in a Hamamatsu FDSS Fluorometric Plate Reader. The cells were loaded with either a Ca2+-sensitive fluorescent dye or the thallium responsive dye and the plates were washed and placed into a suitable kinetic plate reader. For human mGluR4 assays, a fluorescence baseline was established for 3-5 seconds, the disclosed compounds were then added to the cells, and the response in cells was measured. Approximately two and a half minutes later, a concentration of mGluR4 orthosteric agonist (e.g. glutamate or L-AP4) eliciting approximately 20% (EC20) of the maximal agonist response was added to the cells, and the response was measured. Two minutes later, a concentration of mGluR4 agonist (e.g. glutamate or L-AP4) eliciting 80% (EC80) of the maximal agonist response was added to the cells, and the response was measured. For rat mGluR4/GIRK experiments, a baseline was established for approximately five seconds, disclosed compounds were added, and either an EC20 or EC80 concentration of agonist was added approximately two and one half minutes later.
The above described assay operated in two modes. In the first mode, a range of concentrations of the disclosed compounds are added to cells, followed by a single fixed concentration of agonist. If the compound acts as a potentiatior, an EC50 value for potentiation and a maximum extent of potentiation by the compound at this concentration of agonist is determined by non-linear curve fitting. If the compound acts as a noncompetitive antagonist, an IC50 value is determined by non-linear curve fitting. In the second mode, several fixed concentrations of the disclosed compounds are added to various wells on a plate, followed by a range in concentrations of agonist for each concentration of disclosed compound. The EC50 values for the agonist at each concentration of compound are determined by non-linear curve fitting. A decrease in the EC50 value of the agonist with increasing concentrations of the sample compound (a leftward shift of the agonist concentration-response curve) is an indication of the degree of mGluR4 potentiation at a given concentration of the sample compound. A decrease in the maximal response of the agonist with increasing concentrations of the sample compounds, with or without a rightward shift in agonist potency, is an indication of the degree of noncompetitive antagonism at mGluR4. The second mode also indicates whether the sample compounds also affect the maximum response to mGluR4 to agonists.

T1 sequence (Q14833 33-912): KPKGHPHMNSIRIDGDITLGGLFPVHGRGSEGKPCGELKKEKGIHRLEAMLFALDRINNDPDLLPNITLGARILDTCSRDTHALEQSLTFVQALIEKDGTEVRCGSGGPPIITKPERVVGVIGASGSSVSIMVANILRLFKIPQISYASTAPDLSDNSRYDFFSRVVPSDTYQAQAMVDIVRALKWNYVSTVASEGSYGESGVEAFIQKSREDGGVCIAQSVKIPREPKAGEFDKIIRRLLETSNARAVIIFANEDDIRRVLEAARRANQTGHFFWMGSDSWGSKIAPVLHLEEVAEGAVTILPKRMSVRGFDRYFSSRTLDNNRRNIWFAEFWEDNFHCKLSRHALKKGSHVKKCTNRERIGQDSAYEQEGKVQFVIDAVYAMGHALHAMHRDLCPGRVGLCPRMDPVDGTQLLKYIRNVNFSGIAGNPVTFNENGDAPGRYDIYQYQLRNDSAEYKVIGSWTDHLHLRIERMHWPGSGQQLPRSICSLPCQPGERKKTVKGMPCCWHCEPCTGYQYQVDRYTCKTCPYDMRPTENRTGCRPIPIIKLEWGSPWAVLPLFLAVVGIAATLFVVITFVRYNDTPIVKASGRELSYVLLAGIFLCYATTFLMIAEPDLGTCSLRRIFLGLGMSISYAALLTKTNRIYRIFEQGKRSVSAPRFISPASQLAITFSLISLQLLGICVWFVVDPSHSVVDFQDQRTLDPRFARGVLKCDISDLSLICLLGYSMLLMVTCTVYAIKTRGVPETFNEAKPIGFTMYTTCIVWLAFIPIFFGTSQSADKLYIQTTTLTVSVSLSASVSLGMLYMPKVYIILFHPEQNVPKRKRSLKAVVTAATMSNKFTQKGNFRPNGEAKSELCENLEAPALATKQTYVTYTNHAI

Row | Structure (SMILES) | EC50 [nM]
1 | Clc1ccccc1CSc1ccc2[nH]c(-c3ccccn3)nc2c1 [Example 1, 5-(2-Chlorobenzylthio)-2-(pyridin-2-yl)-1H-benzo[d]imidazole] | 2480
2 | O=S(=O)(Cc1ccccc1Cl)c1ccc2[nH]c(-c3ccccn3)nc2c1 [Example 2, 5-(2-Chlorobenzylsulfonyl)-2-(pyridin-2-yl)-1H-benzo[d]imidazole] | 421
3 | Fc1ccccc1CSc1ccc2[nH]c(-c3ccccn3)nc2c1 [Example 3, 5-((2-fluorobenzyl)thio)-2-(pyridin-2-yl)-1H-benzo[d]imidazole] | 2450
4 | O=S(=O)(Cc1ccccc1F)c1ccc2[nH]c(-c3ccccn3)nc2c1 [Example 4, 5-((2-fluorobenzyl)sulfonyl)-2-(pyridin-2-yl)-1H-benzo[d]imidazole] | 330
5 | O=S(=O)(Cc1ccccc1Cl)c1cc2nc(-c3ccccn3)[nH]c2cc1Cl [Example 5, 6-chloro-5-((2-chlorobenzyl)sulfonyl)-2-(pyridin-2-yl)-1H-benzo[d]imidazole] | 350
6 | O=S(=O)(Cc1ccc(Cl)cc1Cl)c1ccc2[nH]c(-c3ccccn3)nc2c1 [Example 6, 5-((2,4-dichlorobenzyl)sulfonyl)-2-(pyridin-2-yl)-1H-benzo[d]imidazole] | 56.8
7 | O=S(=O)(Cc1cc(F)ccc1F)c1ccc2[nH]c(-c3ccccn3)nc2c1 [Example 7, 5-((2,5-difluorobenzyl)sulfonyl)-2-(pyridin-2-yl)-1H-benzo[d]imidazole] | 434
8 | O=S(=O)(Cc1ccc(F)cc1F)c1ccc2[nH]c(-c3ccccn3)nc2c1 [Example 8, 5-((2,4-difluorobenzyl)sulfonyl)-2-(pyridin-2-yl)-1H-benzo[d]imidazole] | 209
9 | O=S(=O)(Cc1c(F)cccc1F)c1ccc2[nH]c(-c3ccccn3)nc2c1 [Example 9, 5-((2,6-difluorobenzyl)sulfonyl)-2-(pyridin-2-yl)-1H-benzo[d]imidazole] | 155
10 | O=S(=O)(Cc1cc(F)c(F)cc1F)c1ccc2[nH]c(-c3ccccn3)nc2c1 [Example 10, 2-(pyridin-2-yl)-5-((2,4,5-trifluorobenzyl)sulfonyl)-1H-benzo[d]imidazole] | 462
11 | O=S(=O)(Cc1ccccc1Cl)c1ccc2[nH]c(-c3cccc(Cl)n3)nc2c1 [Example 11, 5-((2-chlorobenzyl)sulfonyl)-2-(6-chloropyridin-2-yl)-1H-benzo[d]imidazole] | 75.4
12 | O=S(=O)(Cc1ccccc1Cl)c1ccc2[nH]c(-c3nccs3)nc2c1 [Example 12, 2-(5-((2-chlorobenzyl)sulfonyl)-1H-benzo[d]imidazol-2-yl)thiazole] | 1450
13 | O=S(=O)(Cc1ccccc1Cl)c1ccc2[nH]c(-c3cscn3)nc2c1 [Example 13, 4-(5-((2-chlorobenzyl)sulfonyl)-1H-benzo[d]imidazol-2-yl)thiazole] | 1840
14 | O=S(=O)(Cc1ccccc1Cl)c1ccc2[nH]c(-c3ncc(F)cc3F)nc2c1 [Example 14, 5-((2-chlorobenzyl)sulfonyl)-2-(3,5-difluoropyridin-2-yl)-1H-benzo[d]imidazole] | 450
15 | O=S(=O)(Cc1ccccc1Cl)c1ccc2[nH]c(-c3cccc(F)n3)nc2c1 [Example 15, 5-((2-chlorobenzyl)sulfonyl)-2-(6-fluoropyridin-2-yl)-1H-benzo[d]imidazole] | 927
16 | O=S(=O)(Cc1ccccc1Cl)c1ccc2[nH]c(-c3ncccc3F)nc2c1 [Example 16, 5-((2-chlorobenzyl)sulfonyl)-2-(3-fluoropyridin-2-yl)-1H-benzo[d]imidazole] | 221
17 | [O-][S+](Cc1ccccc1Cl)c1cc2nc(-c3ccccn3)[nH]c2cc1Cl (stereo not shown) [Example 17, 6-chloro-5-((2-chlorobenzyl)sulfinyl)-2-(pyridin-2-yl)-1H-benzo[d]imidazole] | 2410
18 | O=S(=O)(Cc1ccc(Cl)cc1F)c1ccc2[nH]c(-c3cccc[n+]3O)nc2c1 [Example 18, 2-(5-((4-chloro-2-fluorobenzyl)sulfonyl)-1H-benzo[d]imidazol-2-yl)-1-hydroxypyridin-1-ium] | 272
19 | O=S(=O)(Cc1ccc(Cl)cc1F)c1ccc2[nH]c(-c3ccccn3)nc2c1 [Example 19, 5-((4-chloro-2-fluorobenzyl)sulfonyl)-2-(pyridin-2-yl)-1H-benzo[d]imidazole] | 82.3
20 | O=S(=O)(Cc1cccc(Cl)c1F)c1ccc2[nH]c(-c3cccc[n+]3O)nc2c1 [Example 20, 2-(5-((3-chloro-2-fluorobenzyl)sulfonyl)-1H-benzo[d]imidazol-2-yl)-1-hydroxypyridin-1-ium] | 1060
21 | O=S(=O)(Cc1cccc(Cl)c1F)c1ccc2[nH]c(-c3ccccn3)nc2c1 [Example 21, 5-((3-chloro-2-fluorobenzyl)sulfonyl)-2-(pyridin-2-yl)-1H-benzo[d]imidazole] | 194
22 | O=C(Nc1ccc(S(=O)(=O)Cc2ccccc2Cl)cc1)c1ccccn1 [Example 27, N-(4-((2-chlorobenzyl)sulfonyl)phenyl)picolinamide] | 237

Next, values leading:

Row | EC50 [nM] | Structure (SMILES)
23 | 55.3 | O=S(=O)(Cc1c(F)cccc1Cl)c1ccc2[nH]c(-c3ccccn3)nc2c1 [Example 22, 5-((2-chloro-6-fluorobenzyl)sulfonyl)-2-(pyridin-2-yl)-1H-benzo[d]imidazole]
24 | 1520 | O=S(=O)(Cc1ccc(Cl)cc1Cl)c1cc2nc(-c3ccccn3)[nH]c2cc1Cl [Example 23, 6-chloro-5-((2,4-dichlorobenzyl)sulfonyl)-2-(pyridin-2-yl)-1H-benzo[d]imidazole]
25 | 112 | O=S(=O)(Cc1c(F)cccc1Cl)c1cc2nc(-c3ccccn3)[nH]c2cc1Cl [Example 24, 6-chloro-5-((2-chloro-6-fluorobenzyl)sulfonyl)-2-(pyridin-2-yl)-1H-benzo[d]imidazole]
26 | 341 | O=S(=O)(Cc1ccccc1Cl)c1cc2nc(-c3ccccn3)[nH]c2cc1F [Example 25, 5-((2-chlorobenzyl)sulfonyl)-6-fluoro-2-(pyridin-2-yl)-1H-benzo[d]imidazole]
27 | 446 | O=S(=O)(Cc1ccc(Cl)cc1F)c1cc2nc(-c3ccccn3)[nH]c2cc1Cl [Example 26, 6-chloro-5-((4-chloro-2-fluorobenzyl)sulfonyl)-2-(pyridin-2-yl)-1H-benzo[d]imidazole]
28 | 427 | O=C(Nc1ccc(S(=O)(=O)Cc2ccccc2Cl)cc1)c1ccco1 [Example 28, N-(4-((2-chlorobenzyl)sulfonyl)phenyl)furan-2-carboxamide]
29 | 1100 | O=C(Nc1ccc(S(=O)(=O)Cc2ccccc2Cl)cc1)c1cccc(Cl)n1 [Example 30, 6-chloro-N-(4-((2-chlorobenzyl)sulfonyl)phenyl)picolinamide]
30 | 730 | O=C(Nc1ccc(S(=O)(=O)Cc2ccccc2Cl)cc1)c1ncccc1F [Example 31, N-(4-((2-chlorobenzyl)sulfonyl)phenyl)-3-fluoropicolinamide]
31 | 5400 | Cc1cccc(C(=O)Nc2ccc(S(=O)(=O)Cc3ccccc3Cl)cc2)n1 [Example 32, N-(4-((2-chlorobenzyl)sulfonyl)phenyl)-6-methylpicolinamide]
